Earlier results, collected in US7138430B2, “Nitrosated and nitrosylated nebivolol and its metabolites, compositions and methods of use” (NitroMed, Inc., priority 2001, dated 2006).

In the case of `O=[N+]([O-])O[C@H]1CO[C@H]2[C@@H]1OC[C@H]2O[N+](=O)[O-]` [isosorbide dinitrate, 1,4,3,6-dianhydro-D-glucitol-2,5-dinitrate], the “solubility in organic solvents” value (organic solvents such as ethanol, ether and chloroform) is given as “freely soluble” and the solubility in water (water) is given as “sparingly soluble”.
